{
  "source": "patent US20090253644A1",
  "about": "“Radiosensitizer” (TOYO SUISAN KAISHA, LTD., priority 2004, published 2009)",
  "key": {"[1]": {"system": "Human esophageal cancer cells (TE-8 cells)", "test": "Animal experiment: TE-8 tumor-transplanted nude mice, tumor growth delay with X-ray irradiation", "format": "in vivo", "settings": "Exp. Ex. 1-5: X-ray 8 Gy day 0 and day 4", "description": "Five nude mice (eight weeks old) were randomly assigned to each of four groups. Human esophageal cancer cells (TE-8 cells) were transplanted to each mouse in the same manner as the above Experimental Example 1-1. When tumor volume reached 50 mm^3, α-SQMG C18:0 administration and irradiation treatment were performed. In a single use group of irradiation, each mouse was irradiated with X-ray at a dose of 8 Gy two times on day 0 and day 4. In a single use group of α-SQMG C18:0 administration, the sensitizer was intraperitoneally administered at a concentration of 1 mg/kg once a day at a total of 5 times from day 0 to day 4. In a combined use group, each mouse of the group was treated with both of irradiation and α-SQMG C18:0 administration. In the control group, neither irradiation nor α-SQMG C18:0 administration was performed. Thereafter, tumor volume was measured over a period of 51 days in the same manner as the above Experimental Example 1-1.\nIn addition, an enhancement ratio (ER) was obtained according to the method described in Experimental Example 1-2. […] For this reason, an enhancement ratio was calculated from the number of days until tumor volume reaches 400 mm^3. As a result, ER was 3.25, and it was shown that synergistic effect was extremely high."}, "[2]": {"system": "human uterine cervical cancer cells (HeLa cells)", "test": "Animal experiment: HeLa tumor-transplanted nude mice, tumor growth delay with X-ray irradiation", "format": "in vivo", "settings": "Exp. Ex. 1-6: X-ray 8 Gy day 0 and day 4", "description": "A human cancer-transplanted mouse was prepared in the same manner as in Experimental Example 1-5 except that human uterine cervical cancer cells (HeLa cells) were transplanted into a nude mouse. When tumor volume reached 100 mm^3, α-SQMG C18:0 administration and irradiation treatment were performed. In a single use group of irradiation, each mouse was irradiated with X-ray at a dose of 8 Gy two times on day 0 and day 4. In a single use group of α-SQMG C18:0 administration, α-SQMG C18:0 was intraperitoneally administered at a concentration of 1 mg/kg at a total of 10 times consisting of two courses of 5 times, that is, once a day from day 0 to day 4 and once a day from day 12 to day 16. In the combined use group, each mouse of the group was treated with both of irradiation and α-SQMG C18:0 administration. In the control group, neither irradiation nor α-SQMG C18:0 administration was performed. Thereafter, tumor volume was measured over a period of 35 days in the same manner as the above Experimental Example 1-1."}, "[3]": {"system": "human lung cancer cells (A549 cells)", "test": "Animal experiment: A549 tumor-transplanted nude mice, tumor growth delay with X-ray irradiation", "format": "in vivo", "settings": "Exp. Ex. 1-7: X-ray 4 Gy day 0 and day 3, 1 mg/kg i.p. once a day day 0 to 4", "description": "In the present Experimental Example, an experiment was performed in the same manner as in the aforementioned Experimental Examples except that human lung cancer cells (A549 cells) were transplanted into a nude mouse. Details of the experiment will be described below.\nFour nude mice (eight weeks old) were randomly assigned to each of four groups. 2.0×10^6 human lung cancer cells (A549 cells) were suspended in PBS (−), and the suspension was transplanted subcutaneously into a right thigh of each mouse. After 45 days, when tumor volume became about 50 mm^3, each mouse was subjected to treatment according to each group. As a radiosensitizer, α-SQMG C18:0 was used as in the aforementioned Experimental Examples. In a single use group of irradiation, X-ray was irradiated two times (at the time of treatment initiation (day 0) and on day 3 after the treatment initiation) at a dose of 4 Gy. In a single use group of α-SQMG C18:0 administration, α-SQMG C18:0 was intraperitoneally administered at a concentration of 1 mg/kg once a day at a total of 5 times from the time of treatment initiation (day 0) to day 4. […] Thereafter, a short diameter and a long diameter of a tumor were measured with a micrometer caliper over a period of 20 days. Tumor volume was calculated according to the following equation, and the tumor growth delaying effect was compared. […]"}, "SAS cells": {"system": "SAS cells", "test": "Colony assay on SAS cells", "format": "cell-based, human", "settings": "same colony assay as Exp. Ex. 2-1 and 2-2"}, "[4]": {"system": "angiogenesis (tube formation)", "test": "Assay by angiogenesis kit (KZ-1000), tube formation", "format": "cell-based", "description": "The anti-angiogenic effect obtained by combined use of 20 μM of α-SQMG C18:0 administration and 4 Gy of ^60Co γ-ray irradiation was investigated using an angiogenesis kit (“angiogenesis kit KZ-1000” of Kurabo Industries Ltd.).\nA drug named Suramin is the known substance as a drug suppressing angiogenesis, and it is known that its action is to inhibit a growth factor receptor of a vascular endothelial cell. In the present Example, Suramin was used as a positive control at 50 μM.\nAs described above, the “theoretical additive point of combined use” is calculated by multiplication, and the theoretical value is compared with an actually measured value."}, "[5]": {"settings": "4 Gy 60Co γ-ray + α-SQMG C18:0 20 μM or Suramin 50 μM"}},
  "note": "“Also recorded” adds a separate entry of the source.",
  "data": [
    {"compound": "CCCCCCCCCCCCCCCCCC(=O)OCC(O)CO[C@H]1O[C@H](CS(=O)(=O)[O-])[C@@H](O)[C@H](O)[C@H]1O.[Na+]", "note": "(stereo partly drawn) [α-SQMG C18:0, 3-O-(6-deoxy-6-sulfo-α-D-glucopyranosyl)-1-O-stearoyl-glycerol sodium salt]", "values": [
      {"measurement": "enhancement ratio (ER)", "setting": "[1]; 1 mg/kg i.p. day 0 to 4, calculated from days until tumor volume reaches 400 mm^3", "result": 3.25},
      {"measurement": "anti-tumor effect (tumor volume), combined use with irradiation", "setting": "[1]; 1 mg/kg i.p. once a day day 0 to 4", "result": "anti-tumor effect far exceeding the anti-tumor effect attained by irradiation"},
      {"measurement": "enhancement ratio (ER)", "setting": "[2]; 1 mg/kg i.p. day 0 to 4 and day 12 to 16, tumor volume 500 mm^3", "result": 2.71},
      {"measurement": "anti-tumor effect (tumor volume), combined use with irradiation", "setting": "[2]; 1 mg/kg i.p. once a day day 0 to 4 and day 12 to 16", "result": "anti-tumor effect far exceeding the anti-tumor effect attained by irradiation"},
      {"measurement": "enhancement ratio (ER)", "setting": "[3]", "result": "cannot be calculated"},
      {"measurement": "anti-tumor effect (tumor volume), combined use with irradiation", "setting": "[3]; sodium salt, 1 mg/kg", "result": "anti-tumor effect exceeding the anti-tumor effect attained by irradiation alone; also recorded: increase in tumor volume is scarcely seen"},
      {"measurement": "cell proliferation suppressing effect on SAS cells", "setting": "SAS cells", "result": "did not exert a cell proliferation suppressing effect"},
      {"measurement": "tube formation rate, Actually measured value, combined use", "setting": "[4]; [5]", "result": 0.0762},
      {"measurement": "tube formation rate, Theoretical value (theoretical additive point of combined use)", "setting": "[4]; [5]", "result": 0.467},
      {"measurement": "tube formation rate, use alone", "setting": "[4]; α-SQMG C18:0 20 μM, Suramin 50 μM, no irradiation", "result": 0.7229}
    ]}
  ]
}
